Laboratory results from paper PMC5696560 (Bioorganic & Medicinal Chemistry Letters, 2017).
pIC50: −log10 of the molar value.

Molecular target: hERG channel (Homo sapiens, UniProt Q12809)
Assay: Inhibition of the hERG channel
Type: biochemical
Settings: for pIC50: studies conducted by Wuxi AppTec

Chain of hERG channel (Q12809 whole entry): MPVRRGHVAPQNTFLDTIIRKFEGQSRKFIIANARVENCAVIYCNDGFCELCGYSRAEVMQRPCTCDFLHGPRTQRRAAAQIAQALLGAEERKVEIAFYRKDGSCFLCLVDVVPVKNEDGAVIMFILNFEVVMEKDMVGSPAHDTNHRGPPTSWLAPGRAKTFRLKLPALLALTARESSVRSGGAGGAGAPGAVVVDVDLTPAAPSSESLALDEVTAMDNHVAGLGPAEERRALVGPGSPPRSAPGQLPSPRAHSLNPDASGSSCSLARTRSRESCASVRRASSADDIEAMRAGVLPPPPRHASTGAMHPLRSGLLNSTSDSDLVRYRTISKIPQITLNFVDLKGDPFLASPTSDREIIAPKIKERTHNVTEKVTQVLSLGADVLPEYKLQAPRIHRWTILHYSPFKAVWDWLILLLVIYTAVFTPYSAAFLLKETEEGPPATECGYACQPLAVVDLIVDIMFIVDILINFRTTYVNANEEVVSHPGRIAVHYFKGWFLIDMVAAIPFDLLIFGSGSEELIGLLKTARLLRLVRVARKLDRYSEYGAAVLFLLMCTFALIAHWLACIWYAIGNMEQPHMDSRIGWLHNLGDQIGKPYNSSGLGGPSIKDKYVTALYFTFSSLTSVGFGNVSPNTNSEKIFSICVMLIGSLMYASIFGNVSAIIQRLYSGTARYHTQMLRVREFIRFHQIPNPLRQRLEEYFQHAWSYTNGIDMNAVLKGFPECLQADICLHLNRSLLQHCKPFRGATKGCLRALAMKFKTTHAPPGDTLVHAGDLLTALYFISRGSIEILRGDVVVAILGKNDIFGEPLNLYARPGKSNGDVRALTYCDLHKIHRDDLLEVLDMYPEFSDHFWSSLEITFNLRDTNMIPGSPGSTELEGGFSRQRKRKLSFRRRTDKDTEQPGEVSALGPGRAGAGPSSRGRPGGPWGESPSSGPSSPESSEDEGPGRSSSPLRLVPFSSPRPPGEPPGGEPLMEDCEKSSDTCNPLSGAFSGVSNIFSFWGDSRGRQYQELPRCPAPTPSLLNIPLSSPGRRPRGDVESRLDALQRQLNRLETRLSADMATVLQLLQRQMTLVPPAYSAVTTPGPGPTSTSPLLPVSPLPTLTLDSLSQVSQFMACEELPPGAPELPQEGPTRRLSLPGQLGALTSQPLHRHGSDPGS

Row | Compound | pIC50 | improvement in hERG IC50 relative to 1 (versus compound 1) [fold]
1 | COc1nc2ccc(Br)cc2cc1[C@@H](c1cc(C)c(C)s1)[C@@](O)(CCN(C)C)c1cccc(F)c1 [Compound 9] | 6.06 | –
2 | COc1cc([C@H](c2cc3cc(Br)ccc3nc2OC)[C@@](O)(CCN(C)C)c2cccc(F)c2)cnc1OC [Compound 43] | 5.72 | 5
3 | COc1nc2ccc(Br)cc2cc1[C@@H](c1ccnc(OC)c1OC)[C@@](O)(CCN(C)C)c1cccc(C)c1 [Compound 45] | 6.28 | –
